We go through 81 compounds from article PMC6792352, “Limited Chemical Structural Diversity Found to Modulate Thyroid Hormone Receptor in the Tox21 Chemical Library” (Environmental Health Perspectives, 2019).

As usually defined, the CC50 is the concentration that lowers cell viability or growth by half. The low end stands for harm at low concentration, the high end for better tolerance by the cells.

Structures can show the parent of a compound that is named as a salt.

One data set is described as follows: in vitro. Particulars: rat, gh3-tre-luc cells, AC50 (uM) modified / 1000.
Compound `COc1ccccc1NC(=O)CC(C)=O` [N-(2-Methoxyphenyl)-3-oxobutanamide] gave a CC50 at 24 h of over 90 µM.

`CC(=O)CC(=O)Nc1ccccc1C` [N-(2-Methylphenyl)-3-oxobutanamide] returned a CC50 at 24 h of over 90 µM.

The compound `CNC(=O)Nc1ccc(Cl)c(Cl)c1` [N-(3,4-Dichlorophenyl)-N'-methylurea] registered a CC50 at 24 h of over 90 µM.

The compound `COc1ccc(NC(C)=O)cc1N` [N-(3-Amino-4-methoxyphenyl)acetamide] had a CC50 at 24 h of over 90 µM.

For `CCC(=O)Nc1cccc(N)c1` [N-(3-Aminophenyl)propanamide], the CC50 at 24 h was over 90 µM.

In the case of `CC(=O)Nc1ccc(C)c(Cl)c1` [N-(3-Chloro-4-methylphenyl)acetamide], the CC50 at 24 h was over 90 µM.

Turning to `CCOc1ccc(NC(=O)CC(C)=O)cc1` [N-(4-Ethoxyphenyl)-3-oxobutanamide], the CC50 at 24 h was over 90 µM.

The compound `COc1ccc(NC(=O)CC(C)=O)cc1` [N-(4-Methoxyphenyl)-3-oxobutanamide] returned a cytotoxic concentration (CC50) at 24 h of over 90 µM.

Compound `COc1ccc(NC(C)=O)cc1` [N-(4-Methoxyphenyl)acetamide] gave a CC50 at 24 h of over 90 µM.

Compound `CC(C)CC(C)N(c1ccccc1)c1ccc(N)cc1` (stereo not drawn) [N-(4-Methylpentan-2-yl)-N-phenylbenzene-1,4-diamine] gave a CC50 at 24 h of 28.5 µM.

`CC(C)C[C@H](NC(=O)OCC1c2ccccc2-c2ccccc21)C(=O)O` [N-(9-Fluorenylmethoxycarbonyl)-L-leucine] showed a CC50 at 24 h of over 90 µM.

On to `CCCCCCCCCCCC[N+](C)(C)CC(=O)O` [N-(Alkyl C10-C16)-N,N-dimethylglycine betaine], for which half-maximal cytotoxicity (CC50 at 24 h) was put at 79.2 µM.

For the compound `C=CC(=O)NCOCCCC` [N-(Butoxymethyl)acrylamide], the CC50 at 24 h was over 100 µM.

Consider `C[N+](C)=CCl` [N-(Chloromethylidene)-N-methylmethanaminium chloride], for which the CC50 at 24 h was over 90 µM.

For the compound `NCCNCCO` [N-(Hydroxyethyl)ethylenediamine], the CC50 at 24 h was over 90 µM.

`C=CC(=O)NCOCC(C)C` [N-(Isobutoxymethyl)acrylamide] returned a cytotoxic concentration (CC50) at 24 h of over 90 µM.

With `CC(=O)Nc1ccc(S(=O)(=O)Nc2cc(C)on2)cc1` [N-Acetyl sulfamethoxazole], the CC50 at 24 h is over 50 µM.

Take `CC(=O)N[C@@H](CS)C(=O)O` [N-Acetyl-L-cysteine]: the CC50 at 24 h was over 90 µM.

For `CC(=O)N[C@@H](CCC(=O)O)C(=O)O` [N-Acetyl-L-glutamic acid], the CC50 at 24 h was over 50 µM.

As to `CC(=O)N[C@@H](Cc1ccc(O)cc1)C(=O)O` [N-Acetyl-L-tyrosine], the half-maximal cytotoxic concentration (CC50) at 24 h is over 50 µM.

For the compound `CC(=O)Nc1cccc(C)c1` [N-Acetyl-m-toluidine], the CC50 at 24 h is over 90 µM.

As for `CC(=O)Nc1ccccc1C` [N-Acetyl-o-toluidine], the 50% cytotoxic concentration (CC50) at 24 h was over 100 µM.

`CC(=O)Nc1ccc(C)cc1` [N-Acetyl-p-toluidine] returned a CC50 at 24 h of over 90 µM.

Consider `CC(=O)N[C@H]1C(O)O[C@H](CO)[C@H](O)[C@@H]1O` (stereo partly drawn) [N-Acetylgalactosamine], for which the CC50 at 24 h was over 50 µM.

In the case of `CC(=O)N[C@@H]1[C@@H](O)[C@H](O)[C@@H](CO)O[C@H]1O` [N-Acetylglucosamine], the CC50 at 24 h is over 50 µM.

For `ON(Cc1ccccc1)Cc1ccccc1` [N-Benzyl-N-hydroxy-1-phenylmethanamine], the CC50 at 24 h is over 90 µM.

Turning to `c1ccc(CNc2ncnc3nc[nH]c23)cc1` [N-Benzyladenine], the CC50 at 24 h is over 90 µM.

With `OCCNCc1ccccc1` [N-Benzylethanolamine], the CC50 at 24 h was over 90 µM.

Consider `CCCCNCCCC` [N-Butyl-1-butanamine], for which the CC50 at 24 h is over 90 µM.

For `CCCCNC1CC(C)(C)NC(C)(C)C1` [N-Butyl-2,2,6,6-tetramethylpiperidin-4-amine], the cytotoxic concentration (CC50) at 24 h is over 90 µM.

Consider `CCCCN(N=O)C(=N)N[N+](=O)[O-]` [N-Butyl-N'-nitro-N-nitrosoguanidine], for which it took 56.4 µM to reach half-maximal cytotoxicity (CC50 at 24 h). This counts as double-digit micromolar.

`CCCCNS(=O)(=O)c1ccc(C)cc1` [N-Butyl-p-toluenesulfonamide] yielded a CC50 at 24 h of over 90 µM.

In turn, `CCCCNc1ccccc1` [N-Butylaniline] had a CC50 at 24 h of over 90 µM.

For `CCCCNS(=O)(=O)c1ccccc1` [N-Butylbenzenesulfonamide], the CC50 at 24 h was over 90 µM.

`CCCCN(CCO)CCO` [N-Butyldiethanolamine] came in with a CC50 at 24 h of over 90 µM.

As for `CCCCNC(N)=O` [N-Butylurea], the CC50 at 24 h is over 90 µM.

Regarding `NC(=O)N[C@@H](CCC(=O)O)C(=O)O` [N-Carbamyl-L-glutamic acid], the CC50 at 24 h was over 50 µM.

For the compound `O=C1CCC(=O)N1Cl` [N-Chlorosuccinimide], the CC50 at 24 h is over 90 µM.

`c1ccc2sc(SNC3CCCCC3)nc2c1` [N-Cyclohexyl-2-benzothiazolesulfenamide] returned a half-maximal cytotoxic concentration (CC50) at 24 h of over 90 µM.

As for `Cc1ccc(S(=O)(=O)NC2CCCCC2)cc1` [N-Cyclohexyl-4-methylbenzenesulfonamide], the CC50 at 24 h was over 90 µM.

As for `CN(C1CCCCC1)C1CCCCC1` [N-Cyclohexyl-N-methylcyclohexanamine], the CC50 at 24 h was over 90 µM.

`C=C(C)CNCC` [N-Ethyl-2-methylallylamine] showed a cytotoxic concentration (CC50) at 24 h of over 90 µM.

Compound `CCNc1cccc(C)c1` [N-Ethyl-3-methylaniline] returned a CC50 at 24 h of over 90 µM.

As for `CCNC(=O)C1CC(C)CCC1C(C)C` (stereo not drawn) [N-Ethyl-4-menthane-3-carboxamide], the CC50 at 24 h is over 90 µM.

`CCNS(=O)(=O)c1ccc(C)cc1` [N-Ethyl-4-methylbenzenesulfonamide] displayed a CC50 at 24 h of over 90 µM.

The compound `CCCCNCC` [N-Ethyl-N-butylamine] showed a CC50 at 24 h of over 90 µM.

`CCN(Cc1ccccc1)c1ccccc1` [N-Ethyl-N-phenyl benzylamine] gave a CC50 at 24 h of over 90 µM.

With `CCNc1ccccc1` [N-Ethylaniline], the CC50 at 24 h is over 90 µM.

Regarding `CCN1CCOCC1` [N-Ethylmorpholine], the CC50 at 24 h was over 90 µM.

`CCNS(=O)(=O)C(F)(F)C(F)(F)C(F)(F)C(F)(F)C(F)(F)C(F)(F)C(F)(F)C(F)(F)F` [N-Ethylperfluorooctanesulfonamide] returned a CC50 at 24 h of over 90 µM.

Consider `CC(CC(C)C)=NO` [N-Hydroxy-4-methylpentan-2-imine], for which the CC50 at 24 h was over 90 µM.

`O=C(NO)c1ccccc1` [N-Hydroxybenzamide] displayed a CC50 at 24 h of over 90 µM.

In turn, `O=C1CCC(=O)N1CO` [N-Hydroxymethylsuccinimide] yielded a cytotoxic concentration (CC50) at 24 h of over 50 µM.

With `C=CC(=O)NC(C)C` [N-Isopropylacrylamide], the CC50 at 24 h was over 90 µM.

`CC(C)Nc1ccccc1` [N-Isopropylaniline] gave a CC50 at 24 h of over 90 µM.

Compound `CC(C)N1C(=O)c2ccccc2C1=O` [N-Isopropylphthalimide] returned a CC50 at 24 h of over 90 µM.

`CN1CCCC1=O` [N-Methyl-2-pyrrolidone]: the CC50 at 24 h is over 90 µM.

The compound `CNc1ccc([N+](=O)[O-])cc1` [N-Methyl-4-nitroaniline] registered a half-maximal cytotoxic concentration (CC50) at 24 h of 54.8 µM.

For `CN1C(=O)c2ccc([N+](=O)[O-])cc2C1=O` [N-Methyl-4-nitrophthalimide], the CC50 at 24 h was over 90 µM.

On to `CNC(C)=O` [N-Methylacetamide], for which the cytotoxic concentration (CC50) at 24 h is over 90 µM.

Compound `CNc1ccccc1` [N-Methylaniline] yielded a CC50 at 24 h of over 90 µM.

Turning to `CNC(=O)c1ccccc1` [N-Methylbenzamide], the CC50 at 24 h is over 90 µM.

The compound `CNCc1ccccc1` [N-Methylbenzylamine hydrochloride] came in with a CC50 at 24 h of over 50 µM.

The compound `CCCCCCCCN(C)CCCCCCCC` [N-Methyldioctylamine] had a half-maximal cytotoxic concentration (CC50) at 24 h of over 90 µM.

Take `CNCCO` [N-Methylethanolamine]: the CC50 at 24 h was over 90 µM.

`CNC(=S)NN` [N-Methylhydrazinecarbothioamide] registered a CC50 at 24 h of 52.5 µM.

The compound `CCCCCCCCNC` [N-Methyloctan-1-amine] registered a CC50 at 24 h of over 90 µM.

As to `CN1C(=O)c2ccccc2C1=O` [N-Methylphthalimide], the CC50 at 24 h is over 90 µM.

For `CN1CCCC1` [N-Methylpyrrolidine], the CC50 at 24 h is over 90 µM.

The compound `CN(N=O)c1ccc([N+](=O)[O-])cc1` [N-Nitroso-N-methyl-4-nitroaniline] gave a CC50 at 24 h of over 90 µM.

Take `CCN(C)N=O` [N-Nitroso-N-methylethylamine]: the CC50 at 24 h was over 90 µM.

With `CCOC(=O)N(C)N=O` [N-Nitroso-N-methylurethane], the CC50 at 24 h was over 90 µM.

Take `CC(=O)CN(CC(C)=O)N=O` [N-Nitrosobis(2-oxopropyl)amine]: the 50% cytotoxic concentration (CC50) at 24 h is over 90 µM.

The same data set, now with this note: rat, gh3-tre-luc cells, AC50 (uM) modified / 1000, Tox21_110001=Tox21_200283; viability, 1 nM T3 present, 24 h.
As to `O=NN(CCO)CCO` [N-Nitrosodiethanolamine], the CC50 at 24 h was over 90 µM.

The same data set, now with this note: rat, gh3-tre-luc cells, AC50 (uM) modified / 1000, Tox21_110001=Tox21_201255; viability, 1 nM T3 present, 24 h.
`CCN(CC)N=O` [N-Nitrosodiethylamine] displayed a CC50 at 24 h of over 90 µM.

The data set is the same for the next values; noted with them: rat, gh3-tre-luc cells, AC50 (uM) modified / 1000, Tox21_110001=Tox21_201457; viability, 1 nM T3 present, 24 h.
Compound `O=NN(c1ccccc1)c1ccccc1` [N-Nitrosodiphenylamine] had a CC50 at 24 h of over 90 µM.

The data set is the same for the next values; noted with them: rat, gh3-tre-luc cells, AC50 (uM) modified / 1000, Tox21_110001=Tox21_201663; viability, 1 nM T3 present, 24 h.
`CN(C)N=O` [N-Nitrosodimethylamine] yielded a CC50 at 24 h of over 90 µM.

The same data set, now with this note: rat, gh3-tre-luc cells, AC50 (uM) modified / 1000, Tox21_110001=Tox21_202334; viability, 1 nM T3 present, 24 h.
`CCCCN(CCCC)N=O` [N-Nitrosodibutylamine] registered a CC50 at 24 h of over 90 µM.

The data set is the same for the next values; noted with them: rat, gh3-tre-luc cells, AC50 (uM) modified / 1000, Tox21_110001=Tox21_202927; viability, 1 nM T3 present, 24 h.
For the compound `CCCCON=O` [N-Butylnitrite], the CC50 at 24 h was over 90 µM.

The data set is the same for the next values; noted with them: rat, gh3-tre-luc cells, AC50 (uM) modified / 1000, Tox21_110001=Tox21_302015; viability, 1 nM T3 present, 24 h.
`CCCCNP(N)(N)=S` [N-Butylphosphorothioic triamide] registered a CC50 at 24 h of over 90 µM.

Staying with this data set, now noted: rat, gh3-tre-luc cells, AC50 (uM) modified / 1000, Tox21_110001=Tox21_302850; viability, 1 nM T3 present, 24 h.
In turn, `CN(N=O)C(N)=O` [N-Nitroso-N-methylurea] had a CC50 at 24 h of over 90 µM.
